The values below come from US20230142366A1, “NOVEL POLYMORPHIC FORMS OF METOPIMAZINE” (Neurogastrx, Inc., priority 2020, published 2023).

Structures can show the parent of a compound that is named as a salt. Marks after values point to notes of the source that are not given here.

The conditions of series [1]: before and after a high fat breakfast; cited from earlier work.
The nature of series [2]: Clinical comparative pharmacokinetic study, 3-period cross-over, single oral doses, plasma samples. The class given is in vivo, human. As to the method: A clinical comparative pharmacokinetic study was performed to understand the pharmacokinetic profile of metopimazine mesylate Crystal Form A in comparison to the free base of metopimazine. This study was as a 3-period, cross-over design with 3 administrations of single doses: oral formulation of metopimazine mesylate Crystal Form A fasting, oral formulation of metopimazine mesylate Crystal Form A after a high-fat breakfast, and oral formulation of metopimazine free base fasting, with a wash-out period of 48 hours between each administration. Fifteen subjects were enrolled and received each of the 3 treatment. Plasma samples from each subject were analyzed for various pharmacokinetic parameters. Mixed model repeated measures (MMRM) analysis was performed on each sample.
The second objective of this study was to compare the pharmacokinetics of metopimazine mesylate Crystal Form A administered as an oral administration of a single dose of 15 mg orally in 15 human subjects either in a fasted state or after a high fat breakfast. Plasma samples from each subject were analyzed for various pharmacokinetic parameters. […] Both Cmax and AUC are well within the 90% confidence interval.

[3] abbreviates: 15 mg single oral dose, n = 15, fasted.
Setting [4] is: 90% confidence interval of ratio fasted vs fed.
[5] abbreviates: 90% confidence interval of ratio fasted vs fed, marked bioequivalence.
Where [6] appears, read: single dose of 15 mg orally, 15 human subjects.

`CS(=O)(=O)c1ccc2c(c1)N(CCCN1CCC(C(N)=O)CC1)c1ccccc1S2` [Metopimazine free base, 1-(3-(2-(methylsulfonyl)-10H-phenothiazin-10-yl)propyl)piperidine-4-carboxamide, reference compound]: in series [1], the “Reduction in AUC (food effect)” value is 23% and the “Reduction in Cmax (food effect)” value was 58%. Further, in series [2] (setting [3]), the “Tmax CV %” value is 77.33%, the “Tmax Max” value worked out at 4.00 h, the “Tmax Median” value stood at 1.00 h and the “Tmax Min” value is 0.50 h. In addition, the “Tmax Mean” value in series [2] (15 mg single oral dose, n = 15, fasted, plasma) is recorded as 1.27 h.

Regarding `CS(=O)(=O)c1ccc2c(c1)N(CCCN1CCC(C(N)=O)CC1)c1ccccc1S2` [Metopimazine mesylate Crystal Form A, 1-(3-(2-(methylsulfonyl)-10H-phenothiazin-10-yl)propyl)piperidine-4-carboxamide methanesulfonic acid], the “Variance of Tmax values compared with metopimazine free base” value in series [2] (15 mg oral, fasted, MMRM analysis) is reported as “statistically significantly lower variance”. For the same compound, in series [2] (15 mg oral, fed vs fasted), the “Change in AUC when administered with food” value was “no notable change in AUC” and the “Reduction in Cmax when administered with food” value is given as “approximately 15%”. In series [2] (setting [3]), the “Tmax CV %” value stood at 34.25%, the “Tmax Max” value is recorded as 1.50 h and the “Tmax Min” value stood at 0.50 h. Further, in series [2] (15 mg, n = 15), the “AUC0-inf GLSM Ratio fasted vs fed (%)” value was determined as 93.63% and the “Cmax GLSM Ratio fasted vs fed (%)” value is 84.07%. Also, in series [2] (setting [4]), the “Cmax ratio Lower CI %” value stood at 63.82% and the “Cmax ratio Upper CI %” value is 110.75%. Besides, in series [2] (setting [5]), the “AUC0-inf ratio Lower CI %” value was 86.00* % and the “AUC0-inf ratio Upper CI %” value is 101.93* %. Besides, in series [2] (setting [6]), the “Geometric mean difference in AUC, high fat breakfast vs fasted” value is given as “not statistical difference” and the “Geometric mean difference in Cmax, high fat breakfast vs fasted” value is reported as “slightly but significantly lower”.
